Laboratory results taken from patent US20240199649A1 (Biosplice Therapeutics, Inc., priority 2022, published 2024).

Biological target: recombinant DYRK1A kinase (Homo sapiens (Human), UniProt Q13627)
Assay: DYRK1A kinase assay (Ser/Thr 18 peptide Z-lyte FRET assay)
Type: biochemical
Conditions: DYRK1A 0.25 μg/mL, ATP 15 μM, Ser/Thr peptide 18 4 μM; one hour at room temperature; 11-point dose-response, duplicate
Protocol: Representative compounds were screened using the assay procedure for DYRK1A kinase activity as described below.
Each compound was dissolved in DMSO as a 10 mM stock and used to prepare compound source plates.
This is a non-radioactive assay using fluorescence resonance energy transfer (FRET) between coumarin and fluorescein to detect kinase activity which is represented as a ratio of coumarin emission/fluorescein emission.
The mixture was allowed to incubate with the representative compounds for one hour at room temperature. All reactions were performed in duplicate. Unphosphorylated (“0% Control”) and phosphorylated (“100% control”) forms of Ser/Thr 18 served as control reactions. Additionally, an 11-point dose-response curve of Staurosporine (1 uM top) was run to serve as a positive compound control.
After incubation, Development Reagent A was diluted in Development Buffer then added to the reaction and allowed to further incubate for one hour at room temperature.
Dose-response curves were generated, and inhibitory concentration (IC50) values were calculated using non-linear regression curve fit in the Dotmatics' Studies Software (Bishops Stortford, UK).

| SMILES | IC50 [nM] |
| --- | --- |
| CNc1nc(N[C@@H]2CN(C3COC3)CC2(F)F)nn2ccc(-c3ccc4nc(C)n(CC(F)F)c4n3)c12 [Compound 368, (R)—N^2-(4,4-Difluoro-1-(oxetan-3-yl)pyrrolidin-3-yl)-5-(3-(2,2-difluoroethyl)-2-methyl-3H-imidazo[4,5-b]pyridin-5-yl)-N^4-methylpyrrolo[2,1-f][1,2,4]triazine-2,4-diamine] | 1.2 |
| CNc1nc(NC2CCN(C3CC(F)(F)C3)CC2)nn2ccc(-c3ccc4nc(C)n(CC(F)F)c4n3)c12 [Compound 371, N^2-(1-(3,3-Difluorocyclobutyl)piperidin-4-yl)-5-(3-(2,2-difluoroethyl)-2-methyl-3H-imidazo[4,5-b]pyridin-5-yl)-N^4-methylpyrrolo[2,1-f][1,2,4]triazine-2,4-diamine] | 2.2 |
| CCN1CC[C@@H](Nc2nc(NC)c3c(-c4ccc5nc(C)n(CC(F)F)c5n4)ccn3n2)[C@@H](F)C1 [Compound 372, 5-(3-(2,2-Difluoroethyl)-2-methyl-3H-imidazo[4,5-b]pyridin-5-yl)-N^2-((3S,4R)-1-ethyl-3-fluoropiperidin-4-yl)-N^4-methylpyrrolo[2,1-f][1,2,4]triazine-2,4-diamine] | 5 |
| CNc1nc(N[C@@H]2CCN(CCF)C[C@@H]2F)nn2ccc(-c3ccc4nc(C)n(CC(F)F)c4n3)c12 [Compound 374, 5-(3-(2,2-Difluoroethyl)-2-methyl-3H-imidazo[4,5-b]pyridin-5-yl)-N^2-((3S,4R)-3-fluoro-1-(2-fluoroethyl)piperidin-4-yl)-N^4-methylpyrrolo[2,1-f][1,2,4]triazine-2,4-diamine] | 2.2 |
| CNc1nc(N[C@H]2CCN(CCF)C[C@H]2F)nn2ccc(-c3ccc4nc(C)n(CC(F)F)c4n3)c12 [Compound 375, 5-(3-(2,2-Difluoroethyl)-2-methyl-3H-imidazo[4,5-b]pyridin-5-yl)-N^2-((3R,4S)-3-fluoro-1-(2-fluoroethyl)piperidin-4-yl)-N^4-methylpyrrolo[2,1-f][1,2,4]triazine-2,4-diamine] | 0.6 |
| CNc1nc(N[C@H]2CCN(C3CC3)C[C@H]2F)nn2ccc(-c3ccc4nc(C)n(CC(F)F)c4n3)c12 [Compound 378, N^2-((3R,4S)-1-Cyclopropyl-3-fluoropiperidin-4-yl)-5-(3-(2,2-difluoroethyl)-2-methyl-3H-imidazo[4,5-b]pyridin-5-yl)-N^4-methylpyrrolo[2,1-f][1,2,4]triazine-2,4-diamine] | 4.1 |
| CNc1nc(N[C@@H]2CCN(C3CC(F)(F)C3)C[C@@H]2F)nn2ccc(-c3ccc4nc(C)n(CC(F)F)c4n3)c12 [Compound 380, N^2-((3S,4R)-1-(3,3-Difluorocyclobutyl)-3-fluoropiperidin-4-yl)-5-(3-(2,2-difluoroethyl)-2-methyl-3H-imidazo[4,5-b]pyridin-5-yl)-N^4-methylpyrrolo[2,1-f][1,2,4]triazine-2,4-diamine] | 3.2 |
| CNc1nc(N[C@H]2CCN(C3CC(F)(F)C3)C[C@H]2F)nn2ccc(-c3ccc4nc(C)n(CC(F)F)c4n3)c12 [Compound 381, N^2-((3R,4S)-1-(3,3-Difluorocyclobutyl)-3-fluoropiperidin-4-yl)-5-(3-(2,2-difluoroethyl)-2-methyl-3H-imidazo[4,5-b]pyridin-5-yl)-N^4-methylpyrrolo[2,1-f][1,2,4]triazine-2,4-diamine] | 2.2 |
| [2H]C([2H])([2H])Nc1nc(N[C@@H]2CCN(C)CC2(F)F)nn2ccc(-c3ccc4nc(C)n(CC(F)F)c4n3)c12 [Compound 382, (R)—N^2-(3,3-Difluoro-1-methylpiperidin-4-yl)-5-(3-(2,2-difluoroethyl)-2-methyl-3H-imidazo[4,5-b]pyridin-5-yl)-N^4-(methyl-d3)pyrrolo[2,1-f][1,2,4]triazine-2,4-diamine] | 3.3 |
| CCN1CC[C@H](Nc2nc(NC)c3c(-c4ccc5nc(C)n(CC(F)F)c5n4)ccn3n2)C(F)(F)C1 [Compound 384, (S)-5-(3-(2,2-Difluoroethyl)-2-methyl-3H-imidazo[4,5-b]pyridin-5-yl)-N^2-(1-ethyl-3,3-difluoropiperidin-4-yl)-N^4-methylpyrrolo[2,1-f][1,2,4]triazine-2,4-diamine] | 2 |
| [2H]C([2H])([2H])Nc1nc(N[C@@H]2CCN(CC)CC2(F)F)nn2ccc(-c3ccc4nc(C)n(CC(F)F)c4n3)c12 [Compound 385, (R)-5-(3-(2,2-Difluoroethyl)-2-methyl-3H-imidazo[4,5-b]pyridin-5-yl)-N^2-(1-ethyl-3,3-difluoropiperidin-4-yl)-N^4-(methyl-d3)pyrrolo[2,1-f][1,2,4]triazine-2,4-diamine] | 4.6 |
| CNc1nc(N[C@H]2CCN(C3CC3)CC2(F)F)nn2ccc(-c3ccc4nc(C)n(CC(F)F)c4n3)c12 [Compound 387, (S)—N^2-(1-Cyclopropyl-3,3-difluoropiperidin-4-yl)-5-(3-(2,2-difluoroethyl)-2-methyl-3H-imidazo[4,5-b]pyridin-5-yl)-N^4-methylpyrrolo[2,1-f][1,2,4]triazine-2,4-diamine] | 12.8 |
| [2H]C([2H])([2H])Nc1nc(N[C@@H]2CCN(C3COC3)CC2(F)F)nn2ccc(-c3ccc4nc(C)n(CC(F)F)c4n3)c12 [Compound 388, (R)—N^2-(3,3-Difluoro-1-(oxetan-3-yl)piperidin-4-yl)-5-(3-(2,2-difluoroethyl)-2-methyl-3H-imidazo[4,5-b]pyridin-5-yl)-N^4-(methyl-d3)pyrrolo[2,1-f][1,2,4]triazine-2,4-diamine] | 4.7 |
| CNc1nc(N[C@H]2CC[C@](C)(O)CC2)nn2ccc(-c3ccc4nnn(CC(F)F)c4n3)c12 [Compound 465, (1r,4r)-4-((5-(3-(2,2-Difluoroethyl)-3H-[1,2,3]triazolo[4,5-b]pyridin-5-yl)-4-(methylamino)pyrrolo[2,1-f][1,2,4]triazin-2-yl)amino)-1-methylcyclohexan-1-ol] | 1.4 |

Continued by falling IC50, values first:

| IC50 [nM] | SMILES |
| --- | --- |
| 15.5 | CNc1nc(NC2CCN(CC(F)(F)F)CC2)nn2ccc(-c3ccc4nc(C)n(CC(F)F)c4n3)c12 [Compound 370, 5-(3-(2,2-Difluoroethyl)-2-methyl-3H-imidazo[4,5-b]pyridin-5-yl)-N^4-methyl-N^2-(1-(2,2,2-trifluoroethyl)piperidin-4-yl)pyrrolo[2,1-f][1,2,4]triazine-2,4-diamine] |
| 6.4 | CNc1nc(N[C@H]2CN(C3COC3)CC2(F)F)nn2ccc(-c3ccc4nc(C)n(CC(F)F)c4n3)c12 [Compound 367, (S)—N^2-(4,4-difluoro-1-(oxetan-3-yl)pyrrolidin-3-yl)-5-(3-(2,2-difluoroethyl)-2-methyl-3H-imidazo[4,5-b]pyridin-5-yl)-N^4-methylpyrrolo[2,1-f][1,2,4]triazine-2,4-diamine] |
| 4.6 | CNc1nc(N[C@@H]2CCN(C3CC3)CC2(F)F)nn2ccc(-c3ccc4nc(C)n(CC(F)F)c4n3)c12 [Compound 386, (R)—N^2-(1-Cyclopropyl-3,3-difluoropiperidin-4-yl)-5-(3-(2,2-difluoroethyl)-2-methyl-3H-imidazo[4,5-b]pyridin-5-yl)-N^4-methylpyrrolo[2,1-f][1,2,4]triazine-2,4-diamine] |
| 3.8 | CCN1CC[C@H](Nc2nc(NC)c3c(-c4ccc5nc(C)n(CC(F)F)c5n4)ccn3n2)[C@H](F)C1 [Compound 373, 5-(3-(2,2-Difluoroethyl)-2-methyl-3H-imidazo[4,5-b]pyridin-5-yl)-N^2-((3R,4S)-1-ethyl-3-fluoropiperidin-4-yl)-N^4-methylpyrrolo[2,1-f][1,2,4]triazine-2,4-diamine] |
| 3.6 | CNc1nc(N[C@@H]2CCN(C3CC3)C[C@@H]2F)nn2ccc(-c3ccc4nc(C)n(CC(F)F)c4n3)c12 [Compound 377, N^2-((3S,4R)-1-Cyclopropyl-3-fluoropiperidin-4-yl)-5-(3-(2,2-difluoroethyl)-2-methyl-3H-imidazo[4,5-b]pyridin-5-yl)-N^4-methylpyrrolo[2,1-f][1,2,4]triazine-2,4-diamine] |
| 3.5 | CCN1CC[C@@H](Nc2nc(NC)c3c(-c4ccc5nc(C)n(CC(F)F)c5n4)ccn3n2)C(F)(F)C1 [Compound 383, (R)-5-(3-(2,2-Difluoroethyl)-2-methyl-3H-imidazo[4,5-b]pyridin-5-yl)-N^2-(1-ethyl-3,3-difluoropiperidin-4-yl)-N^4-methylpyrrolo[2,1-f][1,2,4]triazine-2,4-diamine] |
| 2.9 | CNc1nc(NC2CCN(CCF)CC2)nn2ccc(-c3ccc4nc(C)n(CC(F)F)c4n3)c12 [Compound 369, 5-(3-(2,2-Difluoroethyl)-2-methyl-3H-imidazo[4,5-b]pyridin-5-yl)-N^2-(1-(2-fluoroethyl)piperidin-4-yl)-N^4-methylpyrrolo[2,1-f][1,2,4]triazine-2,4-diamine] |
| 1.8 | CNc1nc(NC2CCC3(CC2)OCCO3)nn2ccc(-c3ccc4nc(C)n(CC(F)F)c4n3)c12 [Compound 389, 5-(3-(2,2-Difluoroethyl)-2-methyl-3H-imidazo[4,5-b]pyridin-5-yl)-N^4-methyl-N^2-(1,4-dioxaspiro[4.5]decan-8-yl)pyrrolo[2,1-f][1,2,4]triazine-2,4-diamine] |
| 0.7 | CNc1nc(N[C@H]2CC[C@@](C)(O)CC2)nn2ccc(-c3ccc4nc(C)n(CC(F)(F)F)c4n3)c12 [Compound 441, (1s,4s)-1-Methyl-4-((5-(2-methyl-3-(2,2,2-trifluoroethyl)-3H-imidazo[4,5-b]pyridin-5-yl)-4-(methylamino)pyrrolo[2,1-f][1,2,4]triazin-2-yl)amino)cyclohexan-1-ol] |
